Structures can show the parent of a compound that is named as a salt.
Target: PDE4B (Homo sapiens, UniProt Q07343)
Assay: In-vitro assay for PDE4 enzymes, real-time enzyme-coupled spectrophotometric assay, PDE4B Activity (Table 10)
Format: biochemical
Details: human PDE4B (hPDE4B), enzyme-coupled spectrophotometric assay; read-out: PDE4B Activity, hPDE4B

Chain of PDE4B (Q07343 whole entry): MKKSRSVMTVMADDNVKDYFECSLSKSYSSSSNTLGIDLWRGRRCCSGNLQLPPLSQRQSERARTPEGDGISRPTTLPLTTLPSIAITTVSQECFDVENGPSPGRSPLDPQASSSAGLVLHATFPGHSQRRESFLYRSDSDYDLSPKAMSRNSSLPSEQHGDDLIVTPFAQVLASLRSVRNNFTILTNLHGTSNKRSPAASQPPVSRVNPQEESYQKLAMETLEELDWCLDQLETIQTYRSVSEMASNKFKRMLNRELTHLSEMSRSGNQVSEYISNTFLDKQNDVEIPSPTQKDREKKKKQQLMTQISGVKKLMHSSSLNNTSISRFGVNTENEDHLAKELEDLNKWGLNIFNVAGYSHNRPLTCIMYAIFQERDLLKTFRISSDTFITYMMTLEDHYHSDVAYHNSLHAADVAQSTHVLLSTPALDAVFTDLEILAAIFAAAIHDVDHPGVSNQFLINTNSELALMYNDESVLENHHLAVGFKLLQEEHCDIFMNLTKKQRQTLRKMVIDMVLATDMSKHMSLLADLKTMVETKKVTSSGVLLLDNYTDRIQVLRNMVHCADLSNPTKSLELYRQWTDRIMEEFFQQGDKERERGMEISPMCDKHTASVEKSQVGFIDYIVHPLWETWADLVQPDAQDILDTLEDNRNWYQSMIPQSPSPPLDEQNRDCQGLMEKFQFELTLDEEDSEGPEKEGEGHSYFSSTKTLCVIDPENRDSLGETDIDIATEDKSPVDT

| Structure (SMILES) | IC50 |
| --- | --- |
| COc1ccc(CN2C[C@@H](OC(N)=O)CC2=O)cc1-c1cccc([N+](=O)[O-])c1 [P-253, Carbamic acid (S)-1-(6-methoxy-3′-nitro-biphenyl-3-ylmethyl)-5-oxo-pyrrolidin-3-yl ester] | 21 to 40 µM |
| COc1ccc(CN2CCCC2=O)nc1-c1cccc([N+](=O)[O-])c1 [P-031, 1-[5-methoxy-6-(3-nitro-phenyl)-pyridin-2-ylmethyl]-pyrrolidin-2-one] | 21 to 40 µM |
| COc1ccc(Cc2ccncc2)nc1-c1cccc([N+](=O)[O-])c1 [P-019, 3-methoxy-2-(3-nitro-phenyl)-6-pyridin-4-ylmethyl-pyridine] | < 5 µM |
| CNC(=O)Cc1ccc(OC)c(-c2cccc([N+](=O)[O-])c2)c1 [Cmpd P-027] | 5 to 20 µM |

Target: PDE4 (Homo sapiens, UniProt Q08499)
Assay: In-vitro assay for PDE4 enzymes, real-time enzyme-coupled spectrophotometric assay (Table 9)
Format: biochemical
Details: human PDE4D; activity class, Table 9; read-out: hPDE4D

Chain of PDE4 (Q08499 whole entry): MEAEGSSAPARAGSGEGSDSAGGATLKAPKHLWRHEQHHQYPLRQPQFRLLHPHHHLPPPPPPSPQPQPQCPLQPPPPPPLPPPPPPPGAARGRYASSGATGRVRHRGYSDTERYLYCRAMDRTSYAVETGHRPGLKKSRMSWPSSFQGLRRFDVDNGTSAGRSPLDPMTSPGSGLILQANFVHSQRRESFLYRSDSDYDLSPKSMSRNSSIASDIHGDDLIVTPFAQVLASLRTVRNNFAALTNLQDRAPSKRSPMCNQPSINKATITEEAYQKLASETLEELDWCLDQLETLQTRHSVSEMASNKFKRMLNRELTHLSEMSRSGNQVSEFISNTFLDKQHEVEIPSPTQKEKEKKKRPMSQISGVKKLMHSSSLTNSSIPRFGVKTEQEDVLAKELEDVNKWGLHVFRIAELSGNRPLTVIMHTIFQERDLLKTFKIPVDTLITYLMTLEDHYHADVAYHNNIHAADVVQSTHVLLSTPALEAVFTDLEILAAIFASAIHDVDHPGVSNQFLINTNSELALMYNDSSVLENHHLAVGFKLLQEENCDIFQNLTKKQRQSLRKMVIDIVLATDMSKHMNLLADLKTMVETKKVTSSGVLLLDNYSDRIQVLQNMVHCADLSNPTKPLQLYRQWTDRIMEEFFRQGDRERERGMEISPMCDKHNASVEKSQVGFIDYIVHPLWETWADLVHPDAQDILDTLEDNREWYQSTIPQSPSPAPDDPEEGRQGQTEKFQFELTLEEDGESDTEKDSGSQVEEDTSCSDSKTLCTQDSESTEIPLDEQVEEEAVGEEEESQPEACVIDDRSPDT

| Structure (SMILES) | IC50 |
| --- | --- |
| COc1ccc([C@@](C)(O)c2ccc(NC(C)=O)cc2)c(F)c1-c1cccc(Cl)c1 (single isomer, unassigned) [P-561] | < 5 µM |
| COc1ccc(COc2ccnc(N3CCCC3)c2)cc1-c1cccc(Cl)c1 [P-607] | < 5 µM |
| COc1ccc(C(O)c2ccc(C#N)cc2)c(O)c1-c1cccc([N+](=O)[O-])c1 (centres unmarked) [P-137, 4-[Hydroxy-(2-hydroxy-6-methoxy-3′-nitro-biphenyl-3-yl)-methyl]benzonitrile] | < 5 µM |
| COc1ccc(Cc2ccc(CNS(C)(=O)=O)c(F)c2)c(F)c1-c1cccc(Cl)c1 [P-286] | < 5 µM |
| [2H]C(O)(c1ccc(N)cc1)c1ccc(OC)c(-c2cccc(Cl)c2)c1F (centres unmarked) [P-538, deutero-(4-amino-phenyl)-(3′-chloro-2-fluoro-6-methoxy-biphenyl-3-yl)-methanol] | < 5 µM |
| COc1ccc(COc2ccc(N3CCC3)nc2)c(F)c1-c1cccc(Cl)c1 [P-586] | < 5 µM |
| COc1ccc(Cc2ccc(NC(C)=O)cc2)c(F)c1-c1cccc(N2CCCC2)c1 [P-381, N-[4-(2-Fluoro-6-methoxy-3′-pyrrolidin-1-yl-biphenyl-3-ylmethyl)-phenyl]-acetamide] | < 5 µM |
| COc1ccc(Cc2ccc(F)cc2)c(F)c1-c1cccc(N)c1 [P-098] | < 5 µM |
| COc1ccc(Cc2ccc(F)cc2)c(C#N)c1-c1cccc([N+](=O)[O-])c1 [P-163, 3-(4-fluoro-benzyl)-6-methoxy-3′-nitro-biphenyl-2-carbonitrile] | < 5 µM |
| NC(=O)Nc1ccc(Cc2ccc(OCC3CCCO3)c(-c3cccc(Cl)c3)c2)cc1 (centres unmarked) [P-543, {4-[3′-Chloro-6-(tetrahydro-furan-2-ylmethoxy)-biphenyl-3-ylmethyl]-phenyl}-urea] | < 5 µM |
| COc1ccc(Cc2ccc(N3CC[C@@H]3C(N)=O)nc2)c(F)c1-c1cccc(Cl)c1 [P-617, (R)-1-[5-(3′-chloro-2-fluoro-6methoxy-biphenyl-3-ylmethyl)-pyridin-2-yl]-azetidine-2-carboxylic acid amide] | < 5 µM |
| [2H]C(O)(c1ccc(NC(N)=O)cc1)c1ccc(OC)c(-c2cccc(Cl)c2)c1 (centres unmarked) [P-584] | 5 to 20 µM |
| COc1ccc(Cc2ccc(Nc3nccs3)cc2)c(F)c1-c1cccc(Cl)c1 [P-466] | < 5 µM |
| COc1ccc(Cc2ccc(N(C)C)cc2)c(F)c1-c1cccc(C(C)=O)c1 [P-326, 1-[3′-(4-Dimethylamino-benzyl)-2′-fluoro-6′-methoxy-biphenyl-3-yl]-ethanone] | < 5 µM |
| COc1ccc(Cn2cc(-c3ccc(NC(N)=O)cc3)cn2)c(F)c1-c1cccc(Cl)c1 [P-435] | < 5 µM |
| COc1ccc(COc2ccc(NC(N)=O)cc2)c(F)c1-c1cccc(Cl)c1 [P-589] | < 5 µM |
| CC(=O)Nc1ccc(NCc2ccc(O)c(-c3cccc(Cl)c3)c2F)cc1 [P-203, N-{4-[(3′-Chloro-2-fluoro-6-hydroxy-biphenyl-3-ylmethyl)-amino]-phenyl}-acetamide] | < 5 µM |
| COc1ccc(Cc2ccc(OCCN3CCOCC3)cc2)c(F)c1-c1cccc(Cl)c1 [P-219] | < 5 µM |
| COc1ccc(Cn2cnc3ccccc32)cc1-c1cccc([N+](=O)[O-])c1 [P-483, 1-(6-Methoxy-3′-nitro-biphenyl-3-ylmethyl)-1H-benzoimidazole] | < 5 µM |
| COc1ccc(Cn2cncn2)cc1-c1cccc([S+](C)[O-])c1 (centres unmarked) [P-169, 1-(3′-Methanesulfinyl-6-methoxy-biphenyl-3-ylmethyl)-1H-[1,2,4]triazole] | 5 to 20 µM |
| COc1ccc(Cc2ccc(F)cc2)cc1-c1cccc(Cl)n1 [P-391, 2-Chloro-6-[5-(4-fluoro-benzyl)-2-methoxy-phenyl]-pyridine] | < 5 µM |
| COc1ccc(Cc2ccc(F)cc2)cc1-c1ccc2c(c1)OC(F)(F)O2 [P-141, 2,2-Difluoro-5-[5-(4-fluoro-benzyl)-2-methoxy-phenyl]-benzo[1,3]dioxole] | < 5 µM |
| COc1ccc(Cc2ccc(NC(=O)CN(C)C)cc2)c(F)c1-c1cccc(Cl)c1 [P-238, N-[4-(3′-chloro-2-fluoro-6-methoxy-biphenyl-3-ylmethyl)-phenyl]-2-dimethylamino-acetamide] | < 5 µM |
| COc1ccc(Cc2ccc(N3[C@@H](C)CC[C@@H]3C)nc2)c(F)c1-c1cccc(Cl)c1 [P-577, 5-(3′-Chloro-2-fluoro-6-methoxy-biphenyl-3-ylmethyl)-2-((2S,5S)-2,5-dimethyl-pyrrolidin-1-yl)-pyridine] | < 5 µM |
| NC(=O)Nc1ccc(Cc2ccc(OC(F)F)c(-c3cccc(Cl)c3)c2)cn1 [P-616, [5-(3′-Chloro-6-difluoromethoxy-biphenyl-3-ylmethyl)-pyridin-2-yl]-urea] | < 5 µM |

| Structure (SMILES) | IC50 |
| --- | --- |
| COc1ccc(N(C)c2ccc(NC(N)=O)cc2)cc1-c1cccc(Cl)c1 [P-293, {4-[(3′-Chloro-6-methoxy-biphenyl-3-yl)-methyl-amino]-phenyl}-urea] | < 5 µM |
| COc1ccc(Cn2cc(-c3ccncn3)cn2)c(F)c1-c1cccc(Cl)c1 [P-546, 4-[1-(3′-Chloro-2-fluoro-6-methoxy-biphenyl-3-ylmethyl)-1H-pyrazol-4-yl]-pyrimidine hydrochloride salt] | < 5 µM |
| COc1ccc(CN2CCOCC2)nc1-c1cccc([N+](=O)[O-])c1 [P-026, 4-[5-methoxy-6-(3-nitro-phenyl)-pyridin-2-ylmethyl]-morpholine] | 5 to 20 µM |
| COc1ccc(Cc2ccc(F)cc2)cc1-n1cc(Cl)cn1 [P-380, 4-Chloro-1-[5-(4-fluoro-benzyl)-2-methoxy-phenyl]-1H-pyrazole] | < 5 µM |
| COc1ccc(Cc2ccc(F)cc2)c(OC)c1-c1cccc([N+](=O)[O-])c1 [P-097] | < 5 µM |
| COc1ccc(COc2ccnc(N3CCCC3)c2)c(F)c1-c1cccc(Cl)c1 [P-608] | < 5 µM |
| COc1ccc(Cc2ccc(N3CCC(O)C3)nc2)c(F)c1-c1cccc(Cl)c1 (centres unmarked) [P-601, 1-[5-(3′-chloro-2-fluoro-6-methoxy-biphenyl-3-ylmethyl)-pyridin-2-yl]-pyrrolidin-3-ol] | < 5 µM |
| COc1ccc(Cc2ccc(NC(N)=O)cc2)c(F)c1-c1cccc(C(C)O)c1 (centres unmarked) [P-340, {4-[2-Fluoro-3′-(1-hydroxy-ethyl)-6-methoxy-biphenyl-3-ylmethyl]-phenyl}-urea] | < 5 µM |
| COc1ccc(COc2cccc(N)c2)c(F)c1-c1cccc(Cl)c1 [P-232] | < 5 µM |
| COc1ccc(CN2C(=O)CC[C@@H]2CO)cc1-c1cccc([N+](=O)[O-])c1 [P-132, (R)-5-Hydroxymethyl-1-(6-methoxy-3′-nitro-biphenyl-3-ylmethyl)-pyrrolidin-2-one] | 20 to 40 µM |
| COc1ccc(Cn2nc(C(F)(F)F)cc2-c2cccnc2)c(F)c1-c1cccc(Cl)c1 [P-552, 3-[2-(3′-Chloro-2-fluoro-6-methoxy-biphenyl-3-ylmethyl)-5-trifluoromethyl-2H-pyrazol-3-yl]-pyridine hydrochloride salt] | < 5 µM |
| COc1ccc(Nc2ccc(NC(N)=O)cc2)cc1-c1cccc(Cl)c1 [P-294, [4-(3′-Chloro-6-methoxy-biphenyl-3-ylamino)-phenyl]-urea] | < 5 µM |
| COc1ccc(Cc2ccc([N+](=O)[O-])c(O)c2)c(F)c1-c1cccc(Cl)c1 [P-257] | < 5 µM |
| CCOC(=O)N1CCN(c2ccc(Cc3ccc(OC)c(-c4cccc(Cl)c4)c3F)cn2)CC1 [P-431] | < 5 µM |
| COc1ccc(Cc2ccc(NC(C)=O)cc2)c(F)c1-c1cccc(N2CCOCC2)c1 [P-390, N-[4-(2-Fluoro-6-methoxy-3′-morpholin-4-yl-biphenyl-3-ylmethyl)-phenyl]-acetamide] | 5 to 20 µM |
| O=CNCc1ccccc1Cc1ccc(O)c(-c2cccc([N+](=O)[O-])c2)c1 [P-501, N-[2-(6-Hydroxy-3′-nitro-biphenyl-3-ylmethyl)-benzyl]-formamide] | 5 to 20 µM |
| COc1ccc(Cc2ccc(N(C)C)cc2)cc1-c1cccc(Cl)c1 [P-241, [4-(3′-Chloro-6-methoxy-biphenyl-3-ylmethyl)-phenyl]-dimethyl-amine] | < 5 µM |
| COc1ccc(N(C)c2ccc(N)cc2)cc1-c1cccc(Cl)c1 [P-288, N-(3′-Chloro-6-methoxy-biphenyl-3-yl)-N-methyl-benzene-1,4-diamine; hydrochloride] | < 5 µM |
| COc1ccc(C(=O)c2ccc(N)cc2)cc1-c1ccc(F)c(F)c1 [P-580] | < 5 µM |
| NC(=O)Nc1ccc(Cc2ccc(OC3CNC3)c(-c3cccc(Cl)c3)c2)cc1 [P-554, {4-[6-(Azetidin-3-yloxy)-3′-chloro-biphenyl-3-ylmethyl]-phenyl}-urea] | 5 to 20 µM |
| COc1ccc(Cc2cccc(CNC(=O)OC(C)(C)C)c2)cc1-c1cccc([N+](=O)[O-])c1 [P-160, [3-(6-Methoxy-3′-nitro-biphenyl-3-ylmethyl)-benzyl]-carbamic acid tert-butyl ester] | 5 to 20 µM |
| COCc1cccc(-c2cc(Cn3cncn3)ccc2OC)c1 [P-108, 1-(6-Methoxy-3′-methoxymethyl-biphenyl-3-ylmethyl)-1H-[1,2,4]triazole] | < 5 µM |
| COc1ccc(C(=O)c2ccc(NC(N)=O)cc2)c(F)c1-c1cccc(Cl)c1 [P-434, [4-(3′-chloro-2-fluoro-6-methoxy-biphenyl-3-carbonyl)-phenyl]-urea] | < 5 µM |
| COc1ccc(Cc2ccc(F)cc2)cc1-c1cccc(N2CCOCC2)c1 [P-385, 4-[5′-(4-Fluoro-benzyl)-2′-methoxy-biphenyl-3-yl]-morpholine] | 5 to 20 µM |

Reference: patent US8791267B2, “Biaryl PDE4 inhibitors for treating inflammatory, cardiovascular and CNS disorders” (Decode Genetics EHF, priority 2007, dated 2014)
